Data from PubChem BioAssay AID2060506 (Molecular Pharmacology Branch, DTP, NCI, 2025).
Where “and” joins values, the source holds several entries; their conditions need not be identical. Equal entries are not always repeated.

Test system: 598228-144-R-J1-PDC complex spheroid viability
Assay: Anticancer human tumor 598228-144-R-J1-PDC patient-derived serous endometrial adenocarcinoma cell line growth inhibition [GQUAD]
Conditions: for viability, T/C: stronger effect = lower value; active = viability on the fitted dose curve at most 10% of control; inactive = the rest
Source text: DNA G-quadruplex Stabilizer Agents in Combinations in Complex Spheroids
A high-throughput screen of multi-cell type tumor spheroids was designed to identify active combinations of DNA G-quadruplex stabilizer agents and targeted small molecules. Complex spheroids include a stromal component modeled by human endothelial cells (HUVEC) and fibroblasts modeled by human mesenchymal stem cells (MSCs). The concentration ranges selected for each drug and investigational agent were based upon clinically achievable concentrations if the clinical Cmax of the agent was known.
Compounds. The drugs and investigational agents: pidnarulex (CX-5461; NSC782164), APTO-253 (NSC789042), BRACO-19 (NSC847499), peposertib (NSC802822), ceralasertib (NSC780249), elimusertib (NSC800525), camonsertib (NSC841442), AZD-1390 (NSC803789), olaparib (NSC753686), talazoparib (NSC767125), ART-558 (NSC835418), sotorasib (NSC818433), MRTX-1133 (NSC836407), SN-38 (NSC673596), topotecan (NSC609699), etoposide (NSC141540), doxorubicin (NSC123127), gemcitabine (NSC613327), 5-fluorouracil (NSC19893), paclitaxel (NSC125973), vemurafenib (NSC761431), panobinostat (NSC761190), R-306465 (JNJ-16241199; NSC773264), adavosertib (NSC754352), TP-3654 (NSC805149), carboplatin (NSC241240), KSQ-4279 (NSC840948), and staurosporine (NSC755774) were obtained from the National Cancer Institute (NCI) Developmental Therapeutics Program Chemical Repository (34). The FDA-approved anticancer drug set is available from the NCI Developmental Therapeutics Program. […] The stock solutions were prepared in dimethyl sulfoxide (DMSO, Sigma-Aldrich, St. Louis, MO, cat. D2650) at 800-fold the tested concentration and stored at -70 degrees C prior to their use. All drugs and investigational agents were tested over a range starting from a high concentration at or near the clinical Cmax and decreasing in half-log increments. If the clinical Cmax for an agent had not been determined, the highest concentration tested was 10 microM.
2.3 Cell Culture. All cells were maintained in an incubator at 37 degrees C and 5% CO2 with 95% humidity. The PDC lines were cultured according to standard operating procedures established by the NCI PDMR. All PDCs were thawed and cultured in Matrigel-coated flasks prepared with a working solution of 1X Ham's F-12 nutrient mix, without supplementation (Invitrogen, cat. 11765054), 100 U/mL penicillin-streptomycin (Invitrogen, cat. 15140122), and 2.5% Matrigel (Corning Inc., cat. 354248) for the first three passages. The 857933-349-R-J2-PDC line was cultured in 6C/Colon 1B media, which includes advanced DMEM/F-12 (Thermo Fisher Scientific, cat. 12634028), 10 mM HEPES (Thermo Fisher Scientific, cat. 15630080), 1X GlutaMAX supplement (Thermo Fisher Scientific, cat. 35050061), 0.1 mg/mL primocin (InvivoGen, cat. ant-pm-2), 10% defined fetal bovine serum, heat inactivated (HyClone Laboratories Inc., cat. SH30070.03HI), 50% L-WRN conditioned media (ATCC, cat. CRL-3276), 1.25 mM N-Acetyl-L-cysteine (Sigma-Aldrich, cat. A9165), 10 mM nicotinamide (Sigma-Aldrich, cat. N0636), 1X B-27 supplement (Thermo Fisher Scientific, cat. 17504044), 1X N-2 supplement (Thermo Fisher Scientific, cat. 17502048), 10 microM Y-27632 dihydrochloride (Tocris Bioscience, cat. 1254), and 50 ng/mL human EGF recombinant protein (Thermo Fisher Scientific, cat. PHG0311). The 485176-168-R4-J1-PDC line was cultured in Panc media, which includes all 6C/Colon 1B media components plus 100 ng/mL human FGF-10 (Thermo Fisher Scientific, cat. 100-26), 500 nM SB-431542 (Selleckchem, cat. S1067), and gastrin (Tocris, cat. 3006).
[…]
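Also: spheroids exposed to the agents for one week before reading.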
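For viability, T/C in this document: percent of vehicle DMSO control viability so 100% = untreated growth.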

CC1COCCN1c1cc(C2(O)CC3CCC(C2)O3)c2cnn(-c3ccn[nH]3)c2n1 (centres undefined)
101 nM and 134 nM and 154 nM: IC50 (curve of compound)
inactive: viability, T/C (compound 0.0316 µM) 68.6% and 72.1% and 69.9% | viability, T/C (compound 0.1 µM) 40% and 42.8% and 48.9% | viability, T/C (compound 0.316 µM) 41.1% and 40% and 42.5% | viability, T/C (compound 1 µM) 33% and 40.1% and 34.1% | viability, T/C (compound 3.16 µM) 22.5% and 33.5% and 32.9% | viability, T/C (compound 10 µM) 11.1% and 15% and 15.1%

CC1COCCN1c1cc(-c2ccnn2C)c2ccnc(-c3ccn[nH]3)c2n1 (centres undefined) + Cc1cnc(CNC(=O)c2c(=O)c3ccc(N4CCCN(C)CC4)nc3n3c2sc2ccccc23)cn1
66 nM: IC50 (curve of first compound, second compound 0.316 µM)
active: viability, T/C (second compound 3.16 µM, first compound 10 µM) 4.32% | viability, T/C (second compound 10 µM, first compound 0.316 µM) 8.76% | viability, T/C (second compound 10 µM, first compound 1 µM) 6.24% | viability, T/C (second compound 10 µM, first compound 3.16 µM) 0.97% | viability, T/C (second compound 10 µM, first compound 10 µM) 8.07%
inactive: viability, T/C (second compound 0.0316 µM, first compound 0.0316 µM) 52% | viability, T/C (second compound 0.0316 µM, first compound 0.1 µM) 48.3% | viability, T/C (second compound 0.0316 µM, first compound 0.316 µM) 44.7% | viability, T/C (second compound 0.0316 µM, first compound 1 µM) 29.7% | viability, T/C (second compound 0.0316 µM, first compound 3.16 µM) 33.5% | viability, T/C (second compound 0.0316 µM, first compound 10 µM) 30.9% | viability, T/C (second compound 0.1 µM, first compound 0.0316 µM) 47.9% | viability, T/C (second compound 0.1 µM, first compound 0.1 µM) 38.4% | viability, T/C (second compound 0.1 µM, first compound 0.316 µM) 43% | viability, T/C (second compound 0.1 µM, first compound 1 µM) 33.2% | viability, T/C (second compound 0.1 µM, first compound 3.16 µM) 38.3% | viability, T/C (second compound 0.1 µM, first compound 10 µM) 25.8% | viability, T/C (second compound 0.316 µM, first compound 0.0316 µM) 58.2% | viability, T/C (second compound 0.316 µM, first compound 0.1 µM) 40.6% | viability, T/C (second compound 0.316 µM, first compound 0.316 µM) 42.9% | viability, T/C (second compound 0.316 µM, first compound 1 µM) 32.5% | viability, T/C (second compound 0.316 µM, first compound 3.16 µM) 39.1% | viability, T/C (second compound 0.316 µM, first compound 10 µM) 21.3% | viability, T/C (second compound 1 µM, first compound 0.0316 µM) 52.3% | viability, T/C (second compound 1 µM, first compound 0.1 µM) 42% | viability, T/C (second compound 1 µM, first compound 0.316 µM) 43.2% | viability, T/C (second compound 1 µM, first compound 1 µM) 33% | viability, T/C (second compound 1 µM, first compound 3.16 µM) 28.2% | viability, T/C (second compound 1 µM, first compound 10 µM) 22.2% | viability, T/C (second compound 3.16 µM, first compound 0.0316 µM) 45.8% | viability, T/C (second compound 3.16 µM, first compound 0.1 µM) 26.1% | viability, T/C (second compound 3.16 µM, first compound 0.316 µM) 33.6% | viability, T/C (second compound 3.16 µM, first compound 1 µM) 23.4% | viability, T/C (second compound 3.16 µM, first compound 3.16 µM) 20.7% | viability, T/C (second compound 10 µM, first compound 0.0316 µM) 23.5% | viability, T/C (second compound 10 µM, first compound 0.1 µM) 17.4%
56.5 nM: IC50 (curve of first compound, second compound 0.0316 µM)
< 31.6 nM: IC50 (curve of first compound, second compound 0.1 µM) | IC50 (curve of first compound, second compound 3.16 µM) | IC50 (curve of first compound, second compound 10 µM)
38.7 nM: IC50 (curve of first compound, second compound 1 µM)
